Assay results from ChEMBL document CHEMBL1201862, “PubChem BioAssay data set” (2004).
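In this assay, cells in 96-well plates receive the compound at five concentrations for 48 hours. Endpoints are linearly interpolated between the surrounding concentrations. GI50 = concentration required for 50% inhibition of growth.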 Calls of active or inactive are those of the source. No stated cut-off is given here; in the data, active = GI50 up to about 1.1 µM and inactive = higher.

Tests used:
Experiment in all cases: inhibition of tumour cell growth, NCI panel, 48 h
[1] = test system: TK-10
[2] = test system: LOX IMVI
[3] = test system: OVCAR-5
[4] = test system: HL-60
[5] = test system: NCI/ADR-RES
[6] = test system: NCI-H23
[7] = test system: SF-268
[8] = test system: BT-549
[9] = test system: NCI-H522
[10] = test system: PC-3
[11] = test system: UACC-257
[12] = test system: SF-539
[13] = test system: A549
[14] = test system: COLO 205
[15] = test system: Hs-578T
[16] = test system: SW-620
[17] = test system: K562
[18] = test system: HCC 2998
[19] = test system: HCT-116

| Structure (SMILES) | GI50 [1] | GI50 [2] | GI50 [3] | GI50 [4] | GI50 [5] | GI50 [6] | GI50 [7] | GI50 [8] | GI50 [9] | GI50 [10] | GI50 [11] | GI50 [12] | GI50 [13] | GI50 [14] | GI50 [15] | GI50 [16] | GI50 [17] | GI50 [18] | GI50 [19] |
| --- | --- | --- | --- | --- | --- | --- | --- | --- | --- | --- | --- | --- | --- | --- | --- | --- | --- | --- | --- |
| C=C1CCC2C(C)(CO)C(O)CCC2(C)C1C/C=C1\C(=O)OCC1O (centres undefined) | 52.8 µM (inactive) | 12.6 µM (inactive) | 17.1 µM (inactive) | 16.2 µM (inactive) | 25 µM (inactive) | 21.6 µM (inactive) | 31.1 µM (inactive) | 7.53 µM (inactive) | 10.4 µM (inactive) | 20.1 µM (inactive) | 20 µM (inactive) | 20.6 µM (inactive) | 23.8 µM (inactive) | 14.8 µM (inactive) | 36.6 µM (inactive) | 9.71 µM (inactive) | 3.24 µM (inactive) | 22.5 µM (inactive) | 14.7 µM (inactive) |
| O=[N+]([O-])c1ccc(NN/N=N/c2ccc(-c3nc4ccccc4[nH]3)cc2)c([N+](=O)[O-])c1 | > 100 µM (inactive) | 7.48 µM (inactive) | > 100 µM (inactive) | 13.8 µM (inactive) | 45.7 µM (inactive) | 29 µM (inactive) | 26.1 µM (inactive) | 48.3 µM (inactive) | 17.9 µM (inactive) | 27.8 µM (inactive) | 76.7 µM (inactive) | 40.9 µM (inactive) | 58.3 µM (inactive) | 27.7 µM (inactive) | 64.9 µM (inactive) | 68.5 µM (inactive) | 6.52 µM (inactive) | 31 µM (inactive) | 26.7 µM (inactive) |
| CCCC(=O)OC(OC(=O)CCC)c1ccc([N+](=O)[O-])o1 | 19.4 µM (inactive) | 21.7 µM (inactive) | 21.8 µM (inactive) | 26.3 µM (inactive) | 39.2 µM (inactive) | 22.1 µM (inactive) | 65.6 µM (inactive) | 47.2 µM (inactive) | 13.4 µM (inactive) | 61.7 µM (inactive) | 21.4 µM (inactive) | 35.7 µM (inactive) | > 100 µM (inactive) | 23.3 µM (inactive) | 35.5 µM (inactive) | 20 µM (inactive) | 34 µM (inactive) | 15.9 µM (inactive) | 16.9 µM (inactive) |
| N=C(N)SCCCN | 3.65 µM (inactive) | 3.3 µM (inactive) | 32.6 µM (inactive) | 1.87 µM (inactive) | 5.02 µM (inactive) | 6.1 µM (inactive) | 5.3 µM (inactive) | 4.06 µM (inactive) | 5.41 µM (inactive) | 15.6 µM (inactive) | 5.4 µM (inactive) | 5.81 µM (inactive) | 37.7 µM (inactive) | 13.7 µM (inactive) | 5.61 µM (inactive) | 26.4 µM (inactive) | 6.03 µM (inactive) | 0.0455 µM (active) | 3.86 µM (inactive) |
| C=CCC(C(=O)O)c1ccccc1 (centres undefined) | > 100 µM (inactive) | > 100 µM (inactive) | > 100 µM (inactive) | > 100 µM (inactive) | > 100 µM (inactive) | > 100 µM (inactive) | > 100 µM (inactive) | > 100 µM (inactive) | > 100 µM (inactive) | > 100 µM (inactive) | > 100 µM (inactive) | > 100 µM (inactive) | > 100 µM (inactive) | > 100 µM (inactive) | > 100 µM (inactive) | > 100 µM (inactive) | > 100 µM (inactive) | > 100 µM (inactive) | > 100 µM (inactive) |
| O=c1oc2ccc([N+](=O)[O-])cc2c(Nc2ccc3c(c2)Sc2ccccc2O3)c1[N+](=O)[O-] | 27.4 µM (inactive) | 20 µM (inactive) | 22.1 µM (inactive) | 18.6 µM (inactive) | 29.5 µM (inactive) | 18.6 µM (inactive) | 27.5 µM (inactive) | 24 µM (inactive) | 17.6 µM (inactive) | 19.5 µM (inactive) | 23.2 µM (inactive) | 19.8 µM (inactive) | 24.9 µM (inactive) | 19.3 µM (inactive) | 37 µM (inactive) | 30.3 µM (inactive) | 24.2 µM (inactive) | 13.6 µM (inactive) | 15.8 µM (inactive) |
| O=[N+]([O-])C(/C=C(\Cl)[N+](=O)[O-])=C(Nc1ccccc1)Nc1ccccc1 | 12.8 µM (inactive) | 16 µM (inactive) | 5.36 µM (inactive) | 2.59 µM (inactive) | 7.93 µM (inactive) | 7.96 µM (inactive) | 14.3 µM (inactive) | 7.24 µM (inactive) | 2.21 µM (inactive) | 14.6 µM (inactive) | 13.9 µM (inactive) | 11.2 µM (inactive) | 17 µM (inactive) | 8.53 µM (inactive) | 8.59 µM (inactive) | 2.79 µM (inactive) | 2.94 µM (inactive) | 21.4 µM (inactive) | 1.98 µM (inactive) |
| O=C(CC(=O)Nc1ccccc1)NNC(Sc1ccccc1)c1cc(/N=N/c2ccc(Br)cc2)ccc1O (centres undefined) | 1.45 µM (inactive) | 2.49 µM (inactive) | 7.98 µM (inactive) | 0.356 µM (active) | 1.26 µM (inactive) | 2.83 µM (inactive) | 0.587 µM (active) | 5.12 µM (inactive) | 4.81 µM (inactive) | 1.45 µM (inactive) | 4.29 µM (inactive) | 1.66 µM (inactive) | 3.85 µM (inactive) | 3.2 µM (inactive) | > 10 µM (inactive) | 0.931 µM (active) | 2.54 µM (inactive) | > 10 µM (inactive) | 0.448 µM (active) |
| CCCCCCCCCCCCc1ccsc1-c1ccc(-c2ccc(-c3sccc3CCCCCCCCCCCC)s2)s1 | > 100 µM (inactive) | > 100 µM (inactive) | > 100 µM (inactive) | > 100 µM (inactive) | > 100 µM (inactive) | > 100 µM (inactive) | > 100 µM (inactive) | > 100 µM (inactive) | > 100 µM (inactive) | > 100 µM (inactive) | > 100 µM (inactive) | > 100 µM (inactive) | > 100 µM (inactive) | > 100 µM (inactive) | > 100 µM (inactive) | > 100 µM (inactive) | > 100 µM (inactive) | > 100 µM (inactive) | > 100 µM (inactive) |
| CC1OC(OC2C(OC(=O)[C@@H]3CC(C)(C)C[C@@H]4C5=CC[C@@H]6[C@@]7(C)C[C@H](O)[C@H](OC8OC(CO)C(O)C(O)C8O)[C@@](C)(CO)C7[C@H](O)C[C@@]6(C)[C@]5(C)C[C@@H](O)[C@H]43)OCC(O)C2O)C(O)C(O)C1O (some centres undefined) | > 15 µM (inactive) | > 15 µM (inactive) | 7.96 µM (inactive) | > 15 µM (inactive) | > 15 µM (inactive) | 7.05 µM (inactive) | > 15 µM (inactive) | > 15 µM (inactive) | 6.12 µM (inactive) | > 15 µM (inactive) | > 15 µM (inactive) | > 15 µM (inactive) | – | 6.28 µM (inactive) | > 15 µM (inactive) | > 15 µM (inactive) | > 15 µM (inactive) | 8.69 µM (inactive) | 7.57 µM (inactive) |
| O=C(NC(Nc1ccc(F)c(Cl)c1)(C(F)(F)F)C(F)(F)F)OCc1ccccc1 | 63.1 µM (inactive) | 64.7 µM (inactive) | > 100 µM (inactive) | 11.5 µM (inactive) | 27.7 µM (inactive) | 71.4 µM (inactive) | 62.7 µM (inactive) | 14.7 µM (inactive) | 22.7 µM (inactive) | 17.4 µM (inactive) | > 100 µM (inactive) | 17.6 µM (inactive) | 43 µM (inactive) | 17.8 µM (inactive) | 51.2 µM (inactive) | 61.7 µM (inactive) | 10.8 µM (inactive) | 22.1 µM (inactive) | 47.5 µM (inactive) |
| COC(=O)c1c(O)ccc2c1c1c(n2CCc2ccccc2)C(=O)c2ccccc2C1=O | 11.6 µM (inactive) | 15.7 µM (inactive) | 20.2 µM (inactive) | 17.8 µM (inactive) | 6.9 µM (inactive) | 11.6 µM (inactive) | 12.7 µM (inactive) | 15.4 µM (inactive) | 7.08 µM (inactive) | 11.6 µM (inactive) | 17.7 µM (inactive) | 16.7 µM (inactive) | 8.97 µM (inactive) | 1.83 µM (inactive) | 13.3 µM (inactive) | 13.2 µM (inactive) | 8.38 µM (inactive) | 2.48 µM (inactive) | 10.9 µM (inactive) |
| O=C(NNC(=O)c1ccncc1)C(=O)Nc1cc(Cl)c(Cl)cc1Cl | > 100 µM (inactive) | > 100 µM (inactive) | > 100 µM (inactive) | > 100 µM (inactive) | > 100 µM (inactive) | > 100 µM (inactive) | > 100 µM (inactive) | > 100 µM (inactive) | > 100 µM (inactive) | > 100 µM (inactive) | > 100 µM (inactive) | > 100 µM (inactive) | > 100 µM (inactive) | – | > 100 µM (inactive) | > 100 µM (inactive) | > 100 µM (inactive) | 21.5 µM (inactive) | > 100 µM (inactive) |
| CCN(CC)CCNc1ccc2nc(C)n3c4ccc(OC)cc4c(=O)c1c23 | 0.873 µM (active) | 1.15 µM (inactive) | 4.82 µM (inactive) | 1.17 µM (inactive) | 0.675 µM (active) | 2.06 µM (inactive) | 0.979 µM (active) | 5.31 µM (inactive) | 0.272 µM (active) | 0.955 µM (active) | 8.75 µM (inactive) | 1.91 µM (inactive) | 0.668 µM (active) | 0.693 µM (active) | 1.04 µM (active) | 0.711 µM (active) | 0.401 µM (active) | 0.8 µM (active) | 0.282 µM (active) |
